Publication PMC7527212 (Science Advances, 2020)

Assays:
WT Bcl-xL = experiment: NMR titration / chemical shift perturbation; format: binding, human
F143W mutant of Bcl-xL = experiment: ITC measurement of Bak BH3 peptide binding, F143W mutant; design: species or system human; details: ratio of KA by ITC, F143W vs WT Bcl-xL

| affinity increase, F143W mutant versus WT Bcl-xL (F143W mutant of Bcl-xL) | Substance | CSP in the cryptic site (WT Bcl-xL; NMR, 160 μM peptide added to 100 μM WT Bcl-xL, 10 mM NaPi pH 6.8, 2 mM DTT, 298 K) | binding to WT Bcl-xL (binding mode) (WT Bcl-xL; concluded from NMR CSPs, 160 μM peptide, 100 μM WT Bcl-xL) |
| --- | --- | --- | --- |
|  | NH3-YPLGSPLWRLHS-COOH [P1] | clear CSP in the cryptic site | binds to the WT Bcl-xL with the expected binding mode |
| twofold | NH3-GQVGRQLAIIGDDINR-COOH [Bak BH3 peptide] |  |  |
